Results reported in patent US6541468B1, “Indolocarbazole derivatives useful for the treatment of neurodegenerative diseases and cancer” (Bayer Corporation, priority 1998, dated 2003).
Like-named read-outs stand apart in the source and are kept apart here.

Columns and labels:
tau hyperphosphorylation = experiment: Okadaic acid induced AD-like tau hyperphosphorylation in rat hippocampal brain slices; type: cell-based
Experimental: Adult male Long-Evans rats were subjected to CO2 anesthesia and sacrificed by decapitation. Brains were rapidly removed (<2 min) and whole hippocampus was dissected using a blunt spatula. Hippocampi were cut into […] slices using a Mcllwain tissue chopper and placed into ice cold low Ca^2+ Krebs-Bicarbonate buffer (pH 7.) of the following composition in mM: NaCl, 124; KCL, 3.33; CaCl2, 0.01; KH2PO4, 1.25; MgSO4, 1.33; nAhco3, 25.7; D-glucose, 10; HEPES, 20. The slices were separated and placed, 5-8 per tube, into 5 mL of low Ca^2+ buffer and incubated for at least 30 min at 33-34° C. with water saturated oxygenation (95% O2, 5% CO2). After 30 min the solution was replaced with buffer containing a physiological level of Ca^2+ (1.3 mM) and incubated for an additional 30 min.
After a total equilibration period of at least 1 hr, the slices were pretreated with vehicle or inhibitor at concentrations ranging from 30 nM to 10 μM for 1 hr, and then exposed to either vehicle or okadaic acid fora 90 min. After treatment, the buffer was removed and the slices were sonicated for 10-20 see in 500 μl of homogenization buffer (100 mM KH2PO4, pH 6.5, 2 mM EGTA, 2 mM EDTA, 1 μM okadaic acid and the following protease inhibitors: aprotinin (10 μg/ml); leupeptin (10 μM); chymostatin (40 μM); PMSF (100 μM) and pepstatin (6 μg/ml).
Following sonication, the samples were centrifuged 16,000×g for 30 min and the supernatants were removed. After boiling of the supernatants for 5 mn at 100° C. the concentration of protein was determined by the BCA assay (Pierce) using BSA as standard and samples were normalized to equal protein concentration.
Aliquots of the heat stable supernatants were separated on 10% SDS-PAGE and Western-blotted with phosphorylation-sensitive tau mAb Tau-1 and PHF-tau mAb AT8 as described for SY5Y studies. Blots were developed by an ECL kit (Amersham Life Science). AT8 immunoreactivity was quantitated on Kodak X0OMAT AR film using a Biorad imaging densitometer GS 670, the strongest signals not exceeding an O.D. of 12.

PKA = target: T1, PKA (Bos taurus, UniProt P00517); experiment: PKA catalytic subunit inhibition assay; type: biochemical, bovine; settings: footnote a) on the CII value: partial inhibition only
T1 construct: The catalytic subunit of bovine heart PKA was obtained commercially from Sigma; purchased Sigma; host or cells: bovine heart
Experimental: Preparation of cAMP-dependent Kinase: The catalytic subunit of bovine heart PKA was obtained commercially from Sigma.
The catalytic subunit of PKA was assayed in 50 μl 25 mM HEPES, pH 7.0, 10 mM MgCl2, 1 mM EDTA, 1 mM DTT, using 70 ng PKA and 0.1 mg/mL human recombinant tau protein as a substrate.
Enzyme, substrate and inhibitor were preincubated for 5-10 min at 4° C. in assay buffers containing a final concentration of 2% DMSO before initiating the reaction with 0.25 mM γ^2P-ATP. Samples were incubated for 30 min at 37° C. and reactions were terminated with 10% trichloracetic acid/2% sodium pyrophosphate (TCA/PPA), followed by filtration over a glass fiber filtermat (type A) with a cell harvester (Tomtec). The filtermats were washed twice for several hours with TCA/PPA until all background radioactivity was removed. Precipitable counts were quantitated directly on the filtermat with a microbeta scintillation counter system (Wallac-Pharmacia). Inhibitor data were subjected to curve fitting and IC50 values were calculated from these curves using the GraphIt program.

[1] = adult rat hippocampal slices, means of triplicate determinations, read-out: Inhibition of tau hyperphos. in brain slices IC50

| Compound | IC50 (tau hyperphosphorylation; adult rat hippocampal brain slices, FIG. 5, read-out: IC50 for prevention of tau hyperphosphorylation in brain slices) [µM] | IC50 (tau hyperphosphorylation; [1]) [µM] | IC50 (PKA) [µM] |
| --- | --- | --- | --- |
| CNC(=O)[C@]1(O)CC2CC1n1c3ccccc3c3c4c(c5c6ccccc6n2c5c31)C(=O)NC4=O (stereo partly drawn) [CII, 9,12-Methano-1H-diindolo[1,2,3-fg:3′,2′,1′-kl]pyrrolo[3,4-I][1,6] benzodiazocine-10-carboxamide, 2,3,9,10,11,12-hexahydro-10-hydroxy-N-methyl-1,3-dioxo-(9α,10β,12α)] | 0.1 | 0.18 | 0.65 |
| COC(=O)[C@@]1(O)C[C@H]2C[C@@H]1n1c3ccccc3c3c4c(c5c6ccccc6n2c5c31)C(=O)NC4=O (relative stereo) [CIII, 9,12-Methano-1H-diindolo[1,2,3-fg:3′,2′,1′-kl]pyrrolo[3,4-I][1,6] benzodiazocine-10-carboxylic acid, 2,3,9,10,11,12-hexahydro-10-hydroxy-1,3-dioxomethyl ester, (9α,10β,12α)] |  | 0.9 | > 100 |
